In brackets after ≈: the same amount, converted by molar mass. Like-named read-outs stand apart in the source and are kept apart here.
Experiments:
Caco-2 permeability = assay type: in vitro ADME; conditions: human; for Papp A→B: AtoB; for Papp B→A: BtoA
Description: Several model systems are available, employing monolayers of various cell types, for evaluation of active transport of pharmaceutically active substances. For example, monolayers of Caco-2 intestinal epithelial cells can be used to evaluate active transport of substances between the intestine and the bloodstream. When plated on a surface which allows the flow of material from apical to basolateral and vice versa, such cells form a biological membrane which can be used to simulate physiological absorption and bioavailability. In another example, mouse brain capillary endothelial cell (MBEC) lines have been established to evaluate active transport in and out of the central nervous system. Another example of such cells is HT29 human colon carcinoma cells. Further, monolayers expressing particular transporter proteins can be established using transfected cells. For example, Sasaki et al (2002) J. Biol. Chem. 8:6497 used a double-transfected Madin-Darby canine kidney cell monolayer to study transport of organic anions.

PDE-1 = PDE-1 inhibition; assay type: biochemical
[1] = Chronic Cytoxicity (mouse 3T3); assay type: cell-based; conditions: 3T3 cells
PDE-6 bovine = target: T1, PDE-6 bovine (Bos taurus, UniProt P11541+P23439); test: PDE-6 bovine inhibition; assay type: biochemical
T1 sequence (P11541 2-856 limits assumed): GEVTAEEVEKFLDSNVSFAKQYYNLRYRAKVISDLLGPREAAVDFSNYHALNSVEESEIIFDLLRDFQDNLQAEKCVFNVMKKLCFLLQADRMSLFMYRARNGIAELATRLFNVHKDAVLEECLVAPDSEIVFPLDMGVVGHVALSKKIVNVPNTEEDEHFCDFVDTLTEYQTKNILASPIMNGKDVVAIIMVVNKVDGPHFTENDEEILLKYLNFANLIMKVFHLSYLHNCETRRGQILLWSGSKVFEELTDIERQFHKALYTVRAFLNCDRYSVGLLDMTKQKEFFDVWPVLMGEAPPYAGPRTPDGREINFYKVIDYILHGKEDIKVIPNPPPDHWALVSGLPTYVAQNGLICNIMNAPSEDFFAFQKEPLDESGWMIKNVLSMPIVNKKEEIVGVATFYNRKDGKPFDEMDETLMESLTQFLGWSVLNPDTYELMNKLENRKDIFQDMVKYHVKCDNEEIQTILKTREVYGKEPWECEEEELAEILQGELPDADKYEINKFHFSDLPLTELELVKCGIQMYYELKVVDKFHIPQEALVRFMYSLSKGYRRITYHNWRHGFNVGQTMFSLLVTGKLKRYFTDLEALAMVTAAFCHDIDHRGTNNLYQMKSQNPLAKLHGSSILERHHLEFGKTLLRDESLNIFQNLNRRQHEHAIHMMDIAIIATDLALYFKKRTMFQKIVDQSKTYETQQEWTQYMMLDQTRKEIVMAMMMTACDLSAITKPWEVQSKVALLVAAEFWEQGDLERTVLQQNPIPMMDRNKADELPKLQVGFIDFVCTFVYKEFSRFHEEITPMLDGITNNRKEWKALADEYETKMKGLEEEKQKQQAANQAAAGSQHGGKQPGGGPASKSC
T1 sequence (P23439 2-850 limits assumed): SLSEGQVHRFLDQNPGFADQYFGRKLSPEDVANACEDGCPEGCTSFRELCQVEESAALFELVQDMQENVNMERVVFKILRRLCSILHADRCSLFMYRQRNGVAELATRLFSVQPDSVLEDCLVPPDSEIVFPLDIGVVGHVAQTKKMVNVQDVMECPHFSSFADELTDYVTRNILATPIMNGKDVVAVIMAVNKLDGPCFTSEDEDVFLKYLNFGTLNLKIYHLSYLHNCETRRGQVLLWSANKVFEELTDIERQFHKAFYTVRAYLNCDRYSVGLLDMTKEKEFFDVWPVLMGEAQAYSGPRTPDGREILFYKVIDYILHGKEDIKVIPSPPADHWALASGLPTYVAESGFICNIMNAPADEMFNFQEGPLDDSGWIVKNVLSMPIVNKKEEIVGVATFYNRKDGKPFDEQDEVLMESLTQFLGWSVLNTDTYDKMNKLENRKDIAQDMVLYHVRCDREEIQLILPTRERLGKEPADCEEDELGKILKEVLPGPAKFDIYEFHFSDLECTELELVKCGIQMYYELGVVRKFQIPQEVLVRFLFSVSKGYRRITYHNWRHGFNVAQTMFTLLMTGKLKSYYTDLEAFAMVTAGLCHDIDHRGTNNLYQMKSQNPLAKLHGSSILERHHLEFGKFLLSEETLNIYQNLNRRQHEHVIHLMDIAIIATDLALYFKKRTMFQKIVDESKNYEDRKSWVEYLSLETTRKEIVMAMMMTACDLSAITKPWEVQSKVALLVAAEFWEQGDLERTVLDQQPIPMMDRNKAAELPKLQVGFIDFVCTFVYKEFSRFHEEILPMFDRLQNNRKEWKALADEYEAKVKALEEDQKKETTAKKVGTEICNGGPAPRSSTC

Solubility = assay type: physicochemical
PDE5 = PDE5 (Homo sapiens, UniProt O76074); test: PDE-5 human inhibition; assay type: biochemical
PDE-3 = PDE-3 inhibition; assay type: biochemical
PAMPA permeability = assay type: in vitro ADME
Non-Spec Binding = assay type: in vitro ADME
Protein Binding = assay type: in vitro ADME; conditions: human, human serum components
Description: In general, protein binding is assessed by measuring the capacity of molecules of the invention to bind to one or more human serum components or mimics thereof. In one embodiment, suitable functional residues may be identified by screening of surfaces comprising such residues for their ability to resist adsorption of serum components, including, but not limited to serum proteins, and preferably human serum proteins. Candidate residues can be screened directly by attaching them to a solid support and testing the support for protein resistance. Alternatively, candidate residues are incorporated into, or linked to molecules of pharmaceutical interest. Such compounds may be synthesized on a solid support, or bound to a solid support after synthesis. In a non-limiting example of a direct binding assay, immobilized candidate functional residues or molecules incorporating such residues are tested for their ability to bind serum components. The serum components can be labeled with a signaling moiety for detection, or a labeled secondary reagent that binds to such serum components can be used.
A direct binding analysis can also be preformed in liquid phase. For example, test compounds can be mixed with one or more serum components in liquid phase, and the unbound molecules determined.

PDE-4 human = PDE-4 human inhibition; assay type: biochemical
[2] = T1/2 in human liver microsomes; assay type: in vitro ADME
[3] = T1/2 in rat liver microsomes; assay type: in vitro ADME
[4] = pH 2.7, aqueous buffer, read-out: Solubility (ug/mL) pH 2.7
[5] = pH 7.4, aqueous buffer, read-out: Solubility (ug/mL) pH 7.4

Papp A→B (Caco-2 permeability) [nm/s]	Papp B→A (Caco-2 permeability) [nm/s]	IC50 (PDE-1) [nM]	IC50 (PDE-6 bovine) [nM]	solubility (Solubility; [4]) [µg/mL]	solubility (Solubility; [5]) [µg/mL]	IC50 (PDE5) [nM]	IC50 (PDE-3) [nM]	Papp (PAMPA permeability; Hex, read-out: PAMPA Hex) [nm/s]	Papp (PAMPA permeability; Lec, read-out: PAMPA Lec) [nm/s]	Non-Spec Binding (%) (Non-Spec Binding)	fraction unbound (Protein Binding)	IC50 (PDE-4 human) [nM]	half-life [2] [min]	half-life [3] [min]	Compound	GI50 [1] [nM]	LC50 (50% lethal concentration) [1] [nM]
14.8	98.8	82	16.3	> 50	> 50	0.646	1930	11.7	14.7	–	–	–	–	–	CCCc1nc(C)c2c(=O)[nH]c(-c3cc(S(=O)(=O)N(C)CCNC)ccc3OCC)nn12 [Compound 2]	> 75000	> 75000
508	504	11.9	3.74	90.2 (≈ 195 µM)	15 (≈ 32.5 µM)	0.107	323	539	–	–	–	–	–	–	CCCc1nc(C)c2c(=O)[nH]c(-c3cc(S(=O)(=O)N(C)C(C)(C)C)ccc3OCC)nn12 [Compound 3]	> 50000	> 100000
–	–	18.7	5.63	–	–	1.08	2030	~0.062	0.019	–	–	–	–	–	CCCc1nc(C)c2c(=O)[nH]c(-c3cc(S(=O)(=O)NCCO)ccc3OCC)nn12 [Compound 4]	~50000	> 100000
43	281	26	17	–	–	0.52	1500	~0.8	–	–	–	–	–	–	CCCc1nc(C)c2c(=O)[nH]c(-c3cc(S(=O)(=O)N(CCO)CCO)ccc3OCC)nn12 [Compound 6]	–	–
486	574	14.7	2.9	–	–	0.356	784	761	–	25.5	0.018	–	–	–	CCCc1nc(C)c2c(=O)[nH]c(-c3cc(S(=O)(=O)N(C)C[C@H](COC)OC)ccc3OCC)nn12 [Compound 7]	–	–
454	474	31	5	–	–	1	1200	689	–	44.2	0.024	–	–	–	CCCc1nc(C)c2c(=O)[nH]c(-c3cc(S(=O)(=O)N(C)C)ccc3OCC)nn12 [Compound 8]	–	–
–	–	12	2.6	–	–	0.34	546	490	–	89.9	0.012	–	–	–	CCCc1nc(C)c2c(=O)[nH]c(-c3cc(S(=O)(=O)N(CCOCC)CCOCC)ccc3OCC)nn12 [Compound 10]	–	–
68.7	305	48	23	> 50	> 50	1	2100	38.6	–	–	–	–	–	–	CCCc1nc(C)c2c(=O)[nH]c(-c3cc(S(=O)(=O)N4CCC[C@H]4CN4CCCC4)ccc3OCC)nn12.Cl [Compound 11]	25000	> 100000
22	55	24	0.48	–	–	0.1	1300	–	–	0.8	0.025	5000	–	–	CCCc1nc(C)c2c(=O)[nH]c(-c3cc(S(=O)(=O)N(C)CC(=O)O)ccc3OCC)nn12 [Compound 12]	–	–
106	367	3.5	0.645	–	–	0.051	777	–	–	5.95	0.0885	373	12.7	16.6	CCCc1nc(C)c2c(=O)[nH]c(-c3cc(S(=O)(=O)NCCCN4CCCC4=O)ccc3OCC)nn12 [Compound 13]	–	–
206	488	12	2.9	–	–	0.104	648	–	–	9.9	0.024	1550	–	–	CCCc1nc(C)c2c(=O)[nH]c(-c3cc(S(=O)(=O)N(C)CC(=O)N(C)OC)ccc3OCC)nn12 [Compound 14]	–	–
26.5	454	17	0.365	–	–	0.04	941	–	–	9.72	0.11	963	> 60	59.9	CCCc1nc(C)c2c(=O)[nH]c(-c3cc(S(=O)(=O)N4CCN(CC(=O)N(C)C)CC4)ccc3OCC)nn12 [Compound 16]	–	–
–	–	11.5	0.63	93.3 (≈ 181 µM)	90.9 (≈ 176 µM)	0.135	1170	–	–	7.4	0.037	944	–	–	CCCc1nc(C)c2c(=O)[nH]c(-c3cc(S(=O)(=O)N(C)CCN4CCCC4=O)ccc3OCC)nn12 [Compound 20]	–	–
–	–	18.5	0.92	–	–	0.05	511	–	–	0.8	0.116	2950	–	–	CCCc1nc(C)c2c(=O)[nH]c(-c3cc(S(=O)(=O)N4CCN(CC(=O)N5CCOCC5)CC4)ccc3OCC)nn12 [Compound 22]	–	–
–	–	15	0.62	–	–	0.19	3700	–	–	–	–	2300	–	–	CCCNS(=O)(=O)c1ccc(OCC)c(-c2nn3c(CCC)nc(C)c3c(=O)[nH]2)c1 [Compound 23]	–	–
